Data from PubChem BioAssay AID330 (DTP/NCI, 2004).
Several values for one entry are separate records, joined by “and”; a condition that tells them apart may be missing. Equal values may be shown once. Toxic doses and inconclusive results are not listed. Rule for the calls: active = survival T/C of 150% or more; inactive = T/C below 125% in these data.

Tested on: P388 leukemia ip, CD2F1 mice, survival T/C
Assay: NCI In Vivo Anticancer Drug Screen. Data for tumor model P388 Leukemia (intraperitoneal) in CD2F1 (CDF1) mice
Details: endpoint: median survival time, higher = longer survival
How it was run: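 Mice carrying the transplanted tumor received test compound or vehicle. Survival was recorded in each group, and the value is the treated-group measurement divided by that of the vehicle-treated control group.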

[1] = dose: 50.0 mg/kg/injection, schedule: Q01DX009 (ip), vehicle: Klucel (hydroxypropylcellulose) (HPC)
[2] = dose: 100.0 mg/kg/injection, schedule: Q01DX009 (ip), vehicle: Klucel (hydroxypropylcellulose) (HPC)
[3] = dose: 12.5 mg/kg/injection, schedule: Q01DX009 (ip), vehicle: saline with Tween-80
[4] = dose: 200.0 mg/kg/injection, schedule: Q01DX009 (ip), vehicle: saline with Tween-80
[5] = dose: 400.0 mg/kg/injection, schedule: Q01DX009 (ip), vehicle: saline with Tween-80
[6] = dose: 50.0 mg/kg/injection, schedule: Q01DX009 (ip), vehicle: saline with Tween-80
[7] = dose: 100.0 mg/kg/injection, schedule: Q01DX009 (ip), vehicle: saline with Tween-80
[8] = dose: 50.0 mg/kg/injection, schedule: Q01DX005 (ip), vehicle: Klucel (hydroxypropylcellulose) (HPC)
[9] = dose: 100.0 mg/kg/injection, schedule: Q01DX005 (ip), vehicle: Klucel (hydroxypropylcellulose) (HPC)
[10] = dose: 200.0 mg/kg/injection, schedule: Q01DX005 (ip), vehicle: Klucel (hydroxypropylcellulose) (HPC)
[11] = dose: 50.0 mg/kg/injection, schedule: Q01DX009 (ip), vehicle: saline
[12] = dose: 100.0 mg/kg/injection, schedule: Q01DX009 (ip), vehicle: saline
[13] = dose: 50.0 mg/kg/injection, schedule: Q01DX005 (ip), vehicle: saline with Tween-80
[14] = dose: 100.0 mg/kg/injection, schedule: Q01DX005 (ip), vehicle: saline with Tween-80
[15] = dose: 200.0 mg/kg/injection, schedule: Q01DX005 (ip), vehicle: saline with Tween-80
[16] = dose: 60.0 mg/kg/injection, schedule: Q01DX005 (ip), vehicle: saline with Tween-80
[17] = dose: 120.0 mg/kg/injection, schedule: Q01DX005 (ip), vehicle: saline with Tween-80
[18] = dose: 240.0 mg/kg/injection, schedule: Q01DX005 (ip), vehicle: saline with Tween-80

Measured: T/C

Clc1ccc(SSN2CCOCC2)cc1
inactive: dose: 3.12 mg/kg/injection, schedule: Q01DX009 (ip), vehicle: saline 100 % of control | dose: 6.25 mg/kg/injection, schedule: Q01DX009 (ip), vehicle: saline 109 % of control | dose: 12.5 mg/kg/injection, schedule: Q01DX009 (ip), vehicle: saline 102 % of control

Clc1nn2ccnc2c2cccnc12
inactive: dose: 12.5 mg/kg/injection, schedule: Q04DX003 (ip), vehicle: Klucel (hydroxypropylcellulose) (HPC) 100 % of control | dose: 25.0 mg/kg/injection, schedule: Q04DX003 (ip), vehicle: Klucel (hydroxypropylcellulose) (HPC) 103 % of control

CCc1cc(COC(C)=O)on1
inactive: [1] 105 % of control | [2] 109 % of control | dose: 200.0 mg/kg/injection, schedule: Q01DX009 (ip), vehicle: Klucel (hydroxypropylcellulose) (HPC) 109 % of control

Nc1ccc(S(N)(=O)=O)cc1
inactive: [3] 105 % of control and 112 % of control | dose: 150.0 mg/kg/injection, schedule: Q01DX009 (ip), vehicle: saline with Tween-80 108 % of control and 97 % of control | [4] 101 % of control and 89 % of control | [5] 98 % of control and 100 % of control

COC(=O)C1C(=O)C2CCC1C(=O)C2C(=O)OC (centres undefined)
inactive: [6] 93 % of control | [7] 93 % of control | [4] 98 % of control

Nc1nc(N)c2[nH]cnc2n1
inactive: dose: 6.25 mg/kg/injection, schedule: Q01DX009 (ip), vehicle: other 111 % of control | dose: 12.5 mg/kg/injection, schedule: Q01DX009 (ip), vehicle: other 100 % of control | dose: 25.0 mg/kg/injection, schedule: Q01DX009 (ip), vehicle: other 104 % of control | dose: 50.0 mg/kg/injection, schedule: Q01DX009 (ip), vehicle: other 95 % of control | [6] 90 % of control | dose: 50.0 mg/kg/injection, schedule: Q04DX003 (ip), vehicle: saline with Tween-80 108 % of control | dose: 100.0 mg/kg/injection, schedule: Q01DX009 (ip), vehicle: other 106 % of control | [7] 90 % of control | dose: 100.0 mg/kg/injection, schedule: Q04DX003 (ip), vehicle: saline with Tween-80 108 % of control | [4] 100 % of control | dose: 200.0 mg/kg/injection, schedule: Q04DX003 (ip), vehicle: saline with Tween-80 108 % of control | [5] 90 % of control | dose: 400.0 mg/kg/injection, schedule: Q04DX003 (ip), vehicle: saline with Tween-80 91 % of control

COc1cc(CC(CC(=O)c2ccc3c(c2)OCO3)C(=O)O)cc(OC)c1OC (centres undefined)
inactive: [8] 94 % of control | [9] 99 % of control | [10] 94 % of control

COCCCC12C=C(OC)C(=O)C=C1OC(c1cc(OC)c(OC)c(OC)c1)C2C (centres undefined)
inactive: dose: 8.75 mg/kg/injection, schedule: Q01DX005 (ip), vehicle: Klucel (hydroxypropylcellulose) (HPC) 100 % of control | dose: 17.5 mg/kg/injection, schedule: Q01DX005 (ip), vehicle: Klucel (hydroxypropylcellulose) (HPC) 106 % of control | dose: 35.0 mg/kg/injection, schedule: Q01DX005 (ip), vehicle: Klucel (hydroxypropylcellulose) (HPC) 96 % of control

COc1ccc(C(=S=O)N(C)c2ccccc2)cc1
inactive: [11] 100 % of control | [12] 100 % of control | dose: 200.0 mg/kg/injection, schedule: Q01DX009 (ip), vehicle: saline 90 % of control

N=c1ccc(=Nc2ccc(N)c3c(O)c4ccccc4c(O)c23)c2c(=O)c3ccccc3c(=O)c1=2
inactive: [13] 103 % of control | [14] 94 % of control | [15] 92 % of control

Cc1nc2c(N)n[nH]c(=O)n2n1
inactive: [16] 103 % of control | [17] 100 % of control | [18] 99 % of control

COc1cc2c(cc1C(C)(C)c1ccccc1)OCO2
inactive: [13] 99 % of control | [14] 100 % of control | [15] 101 % of control

COC1OC(C)C(=O)C2OC12 (centres undefined)
inactive: [1] 112 % of control | [2] 116 % of control

COC(=O)C1=C/C=C\CN(CCC2OCCO2)/C=C\1C(=O)OC
inactive: dose: 100.0 mg/kg/injection, schedule: Q01DX001 (ip), vehicle: alcohol 99 % of control | dose: 200.0 mg/kg/injection, schedule: Q01DX001 (ip), vehicle: alcohol 100 % of control | dose: 400.0 mg/kg/injection, schedule: Q01DX001 (ip), vehicle: alcohol 100 % of control

CN1CCN(CN2C(=O)C3C4C=CC(C3C2=O)C2C3C(=O)N(CN5CCN(C)CC5)C(=O)C3C42)CC1 (centres undefined)
active: dose: 44.6 mg/kg/injection, schedule: Q01DX009 (ip), vehicle: water 151 % of control | dose: 60.0 mg/kg/injection, schedule: Q01DX005 (ip), vehicle: water 151 % of control | dose: 60.0 mg/kg/injection, schedule: Q01DX009 (ip), vehicle: water 165 % of control and 161 % of control | dose: 68.8 mg/kg/injection, schedule: Q01DX009 (ip), vehicle: water 172 % of control | dose: 74.4 mg/kg/injection, schedule: Q01DX009 (ip), vehicle: water 164 % of control and 190 % of control | [12] 211 % of control | dose: 100.0 mg/kg/injection, schedule: Q01DX009 (ip), vehicle: water 200 % of control and 207 % of control
inactive: dose: 6.25 mg/kg/injection, schedule: Q01DX009 (ip), vehicle: water 103 % of control | dose: 7.5 mg/kg/injection, schedule: Q01DX005 (ip), vehicle: water 100 % of control | dose: 7.5 mg/kg/injection, schedule: Q01DX009 (ip), vehicle: water 99 % of control | dose: 12.5 mg/kg/injection, schedule: Q01DX009 (ip), vehicle: water 104 % of control | dose: 15.0 mg/kg/injection, schedule: Q01DX005 (ip), vehicle: water 101 % of control and 96 % of control | dose: 15.0 mg/kg/injection, schedule: Q01DX009 (ip), vehicle: water 105 % of control | dose: 24.8 mg/kg/injection, schedule: Q01DX009 (ip), vehicle: water 113 % of control | dose: 25.0 mg/kg/injection, schedule: Q01DX009 (ip), vehicle: saline 99 % of control | dose: 25.0 mg/kg/injection, schedule: Q01DX009 (ip), vehicle: water 104 % of control | dose: 26.8 mg/kg/injection, schedule: Q01DX009 (ip), vehicle: water 106 % of control and 118 % of control | dose: 30.0 mg/kg/injection, schedule: Q01DX005 (ip), vehicle: water 107 % of control and 119 % of control | dose: 30.0 mg/kg/injection, schedule: Q01DX009 (ip), vehicle: water 116 % of control and 121 % of control | [11] 106 % of control | dose: 120.0 mg/kg/injection, schedule: Q01DX009 (ip), vehicle: water 111 % of control | dose: 124.0 mg/kg/injection, schedule: Q01DX009 (ip), vehicle: water 105 % of control

CCOC(=O)c1c(Cl)c(CC)c(Cl)n2c1nc1ccccc12
inactive: [16] 97 % of control | [17] 93 % of control | [18] 101 % of control

COc1cc(Br)c2nsnc2c1
inactive: [13] 91 % of control | [14] 91 % of control

Nc1c(S(=O)(=O)O)cc(Br)c2c1C(=O)c1ccccc1C2=O
inactive: [13] 98 % of control | [14] 98 % of control | [15] 93 % of control

O=c1c2cnccc2cc2n1CCc1c-2[nH]c2ccccc12
inactive: dose: 3.12 mg/kg/injection, schedule: Q01DX009 (ip), vehicle: saline with Tween-80 101 % of control | dose: 6.25 mg/kg/injection, schedule: Q01DX009 (ip), vehicle: saline with Tween-80 101 % of control and 86 % of control | [3] 101 % of control | dose: 25.0 mg/kg/injection, schedule: Q01DX009 (ip), vehicle: saline with Tween-80 110 % of control

COc1ccc2cc3c(nc2c1N)C(=O)C(N1CC1)=C(N1CC1)C3=O
inactive: dose: 25.0 mg/kg/injection, schedule: Q01DX005 (ip), vehicle: Klucel (hydroxypropylcellulose) (HPC) 98 % of control | [8] 99 % of control | [9] 100 % of control | [10] 100 % of control
